Here are results for 27 molecules from ChEMBL document CHEMBL3352069, “Thieno[2,3-b]pyridines as negative allosteric modulators of metabotropic GluR5 receptors: hit-to-lead optimization” (Bioorg Med Chem Lett, 2014).

Test [1] concerns the target T1, Metabotropic glutamate receptor 5 (Rattus norvegicus, UniProt P31424). In words: Displacement of [3H]-M-MPEP from mGluR5 in rat cerebrocortical membrane preparation. It counts as cell membranes. Background: In a radioligand displacement assay an active substance lowers the binding of a labelled ligand.
In test [2] the target is T1, Metabotropic glutamate receptor 5. In words: Inhibition of mGluR5 in rat embryo neuronal culture assessed as calcium level by Fluo-4/AM dye based fluorometry. The test is classed as functional.
For test [3], the target named is Metabotropic glutamate receptor 5 (Rattus norvegicus) (UniProt P31424). In words: Displacement of [3H]-M-MPEP from mGluR5 in rat cerebrocortical membrane preparation at 1 uM. The test is classed as cell membranes.
Sequence of Metabotropic glutamate receptor 5 (Rattus norvegicus) (P31424 21-1203 limits assumed): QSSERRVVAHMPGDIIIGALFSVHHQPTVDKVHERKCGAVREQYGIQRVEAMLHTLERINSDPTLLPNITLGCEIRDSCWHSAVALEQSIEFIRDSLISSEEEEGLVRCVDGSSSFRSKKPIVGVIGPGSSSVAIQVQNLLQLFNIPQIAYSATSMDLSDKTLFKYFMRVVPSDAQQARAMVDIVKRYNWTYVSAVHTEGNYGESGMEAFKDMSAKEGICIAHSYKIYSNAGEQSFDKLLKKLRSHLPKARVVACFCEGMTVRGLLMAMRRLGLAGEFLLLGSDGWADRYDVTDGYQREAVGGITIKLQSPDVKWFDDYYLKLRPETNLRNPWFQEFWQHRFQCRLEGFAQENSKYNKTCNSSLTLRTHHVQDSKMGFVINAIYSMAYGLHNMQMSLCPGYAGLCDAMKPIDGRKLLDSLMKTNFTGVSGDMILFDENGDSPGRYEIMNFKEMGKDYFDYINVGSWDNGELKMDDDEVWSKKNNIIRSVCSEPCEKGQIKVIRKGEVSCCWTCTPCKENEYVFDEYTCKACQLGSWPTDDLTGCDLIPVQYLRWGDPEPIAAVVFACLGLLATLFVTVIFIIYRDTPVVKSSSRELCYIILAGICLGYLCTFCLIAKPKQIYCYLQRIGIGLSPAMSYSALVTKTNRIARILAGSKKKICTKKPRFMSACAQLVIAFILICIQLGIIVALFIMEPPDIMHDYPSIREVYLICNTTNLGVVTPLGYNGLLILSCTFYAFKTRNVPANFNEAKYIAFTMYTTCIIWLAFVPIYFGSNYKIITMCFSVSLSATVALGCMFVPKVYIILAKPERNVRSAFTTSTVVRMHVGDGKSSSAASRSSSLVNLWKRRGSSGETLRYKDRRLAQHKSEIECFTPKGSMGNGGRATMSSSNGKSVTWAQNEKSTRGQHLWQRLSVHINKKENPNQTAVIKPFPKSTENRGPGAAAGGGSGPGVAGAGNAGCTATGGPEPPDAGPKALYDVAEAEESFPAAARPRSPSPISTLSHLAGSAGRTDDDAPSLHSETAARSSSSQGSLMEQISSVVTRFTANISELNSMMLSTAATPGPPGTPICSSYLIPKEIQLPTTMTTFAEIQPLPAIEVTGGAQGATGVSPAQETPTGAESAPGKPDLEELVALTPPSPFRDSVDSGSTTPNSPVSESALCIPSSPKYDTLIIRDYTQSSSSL
The test system of another test is Rattus norvegicus. In words: Anxiolytic activity in ip dosed rat assessed as increase in number of shocks measured for 30 mins Vogel punished drinking model. It counts as functional, organism-based.

Broadly, the Ki is the equilibrium dissociation constant of an inhibitor or competing ligand from its target. Lower therefore signals tighter binding. As usually defined, the IC50 is the midpoint of a concentration-inhibition curve. As usually defined, the inhibition is how much of the control response was suppressed. Lower therefore signals little suppression.

The structures appear in SMILES notation.

T1 sequence (P31424 whole entry): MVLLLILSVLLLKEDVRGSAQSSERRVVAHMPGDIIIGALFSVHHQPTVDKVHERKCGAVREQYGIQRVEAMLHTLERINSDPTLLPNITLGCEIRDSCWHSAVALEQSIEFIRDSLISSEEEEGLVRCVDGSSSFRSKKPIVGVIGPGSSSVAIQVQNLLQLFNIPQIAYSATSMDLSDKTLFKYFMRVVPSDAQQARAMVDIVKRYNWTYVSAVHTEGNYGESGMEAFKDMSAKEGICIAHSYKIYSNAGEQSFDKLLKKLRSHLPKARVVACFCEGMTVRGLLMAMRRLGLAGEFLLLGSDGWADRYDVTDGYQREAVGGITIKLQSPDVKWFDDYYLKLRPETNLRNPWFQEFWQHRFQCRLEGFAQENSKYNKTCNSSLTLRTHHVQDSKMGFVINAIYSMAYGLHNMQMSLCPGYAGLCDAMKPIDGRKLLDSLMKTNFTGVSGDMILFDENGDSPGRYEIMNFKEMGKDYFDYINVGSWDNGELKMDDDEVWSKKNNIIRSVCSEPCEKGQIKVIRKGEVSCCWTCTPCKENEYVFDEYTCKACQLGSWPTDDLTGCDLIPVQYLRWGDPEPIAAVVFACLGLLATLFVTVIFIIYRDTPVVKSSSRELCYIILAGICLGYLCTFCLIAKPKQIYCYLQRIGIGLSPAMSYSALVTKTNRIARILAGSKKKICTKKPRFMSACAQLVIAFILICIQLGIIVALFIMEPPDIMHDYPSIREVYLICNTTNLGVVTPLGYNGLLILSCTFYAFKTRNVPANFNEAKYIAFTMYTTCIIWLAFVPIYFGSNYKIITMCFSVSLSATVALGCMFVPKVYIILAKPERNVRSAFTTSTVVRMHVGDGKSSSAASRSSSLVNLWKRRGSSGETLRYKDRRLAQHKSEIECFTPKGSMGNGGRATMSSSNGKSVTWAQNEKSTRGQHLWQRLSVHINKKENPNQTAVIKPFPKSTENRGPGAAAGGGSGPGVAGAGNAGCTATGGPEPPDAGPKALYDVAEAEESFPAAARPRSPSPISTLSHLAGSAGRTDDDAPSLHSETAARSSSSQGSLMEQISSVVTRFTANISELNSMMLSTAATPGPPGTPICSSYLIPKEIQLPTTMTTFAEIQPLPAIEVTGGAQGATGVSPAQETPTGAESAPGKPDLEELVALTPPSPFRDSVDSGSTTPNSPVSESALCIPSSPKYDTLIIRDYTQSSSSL

For the molecule `O=C(OCc1ccc(F)cc1)c1sc2ncccc2c1-c1ccc(Cl)cc1`, the inhibitory constant (Ki) in test [1] came out at 41 nM. For the same molecule, the half-maximal inhibitory concentration (IC50) in test [2] was 150 nM.

`Fc1ccc(-c2nnc(-c3sc4ncccc4c3-c3ccc(Cl)cc3)o2)cc1`: in test [3], the inhibition was 24%. Regarding `O=C(CCc1ccccc1)c1sc2ncccc2c1-c1ccccc1`, in test [1], the Ki came to 730 nM. Moreover, the half-inhibitory concentration (IC50) in test [2] came out at 3300 nM. Turning to `O=C(CCc1ccc(F)cc1)c1sc2ncccc2c1-c1ccc(F)cc1`, the inhibitory constant (Ki) in test [1] came to 180 nM. In addition, the IC50 in test [2] came out at 1000 nM. `O=C(CCc1cccc(F)c1)c1sc2ncccc2c1-c1ccc(F)cc1` registered a Ki in test [1] of 224 nM. The molecule `Fc1ccc(C/C=C/c2sc3ncccc3c2-c2ccc(F)cc2)cc1` returned an inhibition in test [3] of 12%. Molecule `CC(=O)c1sc2ncccc2c1-c1ccccc1` returned an inhibition in test [3] of 17%. In test [3], `O=C(CCc1ccc(F)cc1)c1sc2ccccc2c1-c1ccc(F)cc1` showed an inhibition of 8%. As to `O=C(CCc1ccc(F)cc1)c1sc2ncccc2c1-c1ccccc1`, the affinity in test [1] corresponds to a Ki of 343 nM. The IC50 in test [2] worked out at 2100 nM. In the case of `O=C(Nc1ccc(F)cc1)c1sc2ncccc2c1-c1ccc(Cl)cc1`, in test [3], the inhibition is 0%. In the case of `O=C(NCc1ccc(F)cc1)c1sc2ncccc2c1-c1ccc(F)cc1`, the affinity in test [1] corresponds to a Ki of 311 nM. In test [3], `CN(Cc1ccc(F)cc1)C(=O)c1sc2ncccc2c1-c1ccc(Cl)cc1` came in with an inhibition of 13%. Turning to `COc1ccc(CCC(=O)c2sc3ncccc3c2-c2ccccc2)cc1`, the affinity in test [1], expressed as Ki, was 2500 nM. In addition, in test [2], the IC50 amounted to 8000 nM.

On to `Fc1ccc(CCCc2sc3ncccc3c2-c2ccc(F)cc2)cc1`, for which the inhibition in test [3] is 0%. In the case of `Fc1ccc(-c2c(C3=NOC(c4ccc(F)cc4)C3)sc3ncccc23)cc1` (stereo not given), in test [3], the inhibition is 52%.

As to `O=C(CCc1ccccc1)c1sccc1-c1ccccc1`, the inhibition in test [3] came out at 0%. On the same count and under the same terms, in the case of `Fc1ccc(-c2nc(-c3sc4ncccc4c3-c3ccc(Cl)cc3)no2)cc1` it was 0%.

For the molecule `O=C(CCc1ccccc1)c1sccc1-c1ccc(F)cc1`, the inhibition in test [3] stood at 0%. Same read-out and setting: in the case of `O=C(Oc1ccc(F)cc1)c1sc2ncccc2c1-c1ccc(Cl)cc1` it was 15%; in that of `c1ccc(-c2csc3ncccc23)cc1`, 0%. The molecule `O=C(Cc1ccc(F)cc1)c1sc2ncccc2c1-c1ccc(F)cc1` came in with a Ki in test [1] of 140 nM.

`O=C(CCc1ccc(F)cc1)c1[nH]c2ccccc2c1-c1ccc(F)cc1` displayed an inhibition in test [3] of 4%. As to `CN(C(=O)c1sc2ncccc2c1-c1ccc(F)cc1)c1ccc(F)cc1`, the inhibition in test [3] was determined as 19%. In the case of `O=S(=O)(c1ccc(Cl)cc1)c1sc2ncccc2c1-c1ccc(Cl)cc1`, the Activity result with Rattus norvegicus was “Dose-dependent effect”. This molecule returned a Ki in test [1] of 12.3 nM. In test [2], the IC50 stood at 46 nM. `O=C(c1ccc(Cl)cc1)c1sc2ncccc2c1-c1ccc(F)cc1` gave an inhibition in test [3] of 30%.

Molecule `O=C(Cc1ccc(F)cc1)c1sc2ncccc2c1-c1ccc(Cl)cc1` showed an inhibitory constant (Ki) in test [1] of 83 nM. Further, the IC50 in test [2] is 350 nM. `OC(CCc1ccc(F)cc1)c1sc2ncccc2c1-c1ccc(F)cc1` (stereo not given) yielded an inhibition in test [3] of 3%.
